Source: ChEMBL document CHEMBL3044588, “Microwave-mediated synthesis of triazolothiadiazoles as anti-inflammatory, analgesic, and anti-oxidant agents” (Med Chem Res, 2012)
The source made the active and inactive calls. No cut-off for these calls is given here.

Legend:
[1] = system: Mus musculus; experiment: Analgesic activity in po dosed Mus musculus Swiss albino (mouse) assessed as increase in reaction time after 1.5 hr by tail-flick method relative to control; format: functional
[2] = system: Mus musculus; experiment: Analgesic activity in po dosed Mus musculus Swiss albino (mouse) assessed as increase in reaction time after 0.5 hr by tail-flick method relative to control; format: functional
[3] = system: Rattus norvegicus; experiment: Anti-inflammatory activity in Rattus norvegicus Wistar albino (rat) assessed as inhibition of carrageenan-induced paw edema at 20 mg/kg, po administered 30 min before carrageenan challenge measured after 2 hr relative to control; format: functional
[4] = system: Mus musculus; experiment: Analgesic activity in po dosed Mus musculus Swiss albino (mouse) assessed as increase in reaction time after 1 hr by tail-flick method relative to control; format: functional
[5] = system: Rattus norvegicus; experiment: Anti-inflammatory activity in Rattus norvegicus Wistar albino (rat) assessed as inhibition of carrageenan-induced paw edema at 20 mg/kg, po administered 30 min before carrageenan challenge measured after 1 hr relative to control; format: functional
[6] = system: Rattus norvegicus; experiment: Anti-inflammatory activity in Rattus norvegicus Wistar albino (rat) assessed as inhibition of carrageenan-induced paw edema at 20 mg/kg, po administered 30 min before carrageenan challenge measured after 3 hr relative to control; format: functional
[7] = system: Rattus norvegicus; experiment: Anti-inflammatory activity in Rattus norvegicus Wistar albino (rat) assessed as inhibition of carrageenan-induced paw edema at 20 mg/kg, po administered 30 min before carrageenan challenge measured after 2.5 hr relative to control; format: functional
[8] = system: Radical scavenging activity; experiment: Antioxidant activity assessed as DPPH free radical scavenging activity at 100 ug/ml after 30 min; format: functional
[9] = system: Rattus norvegicus; experiment: Anti-inflammatory activity in Rattus norvegicus Wistar albino (rat) assessed as inhibition of carrageenan-induced paw edema at 20 mg/kg, po administered 30 min before carrageenan challenge measured after 0.5 hr relative to control; format: functional
[10] = system: Rattus norvegicus; experiment: Anti-inflammatory activity in Rattus norvegicus Wistar albino (rat) assessed as inhibition of carrageenan-induced paw edema at 20 mg/kg, po administered 30 min before carrageenan challenge measured after 1.5 hr relative to control; format: functional
[11] = Antioxidant activity assessed as nitric oxide radical scavenging activity at 100 ug/ml after 150 min by Griess Illosvoy reaction; format: functional
[12] = Antioxidant activity assessed as hydroxyl radical scavenging activity at 100 ug/ml after 4 hr; format: functional
[13] = Antioxidant activity assessed as superoxide radical scavenging activity at 100 ug/ml after 5 min by NBT reduction assay; format: functional
[14] = system: Rattus norvegicus; experiment: Ulcerogenic activity in Rattus norvegicus Wistar albino (rat) assessed as ulcer index at 200 mg/kg, po after 17 hr; format: toxicity, organism-based; set-up: dose 200 mg/kg, route oral; conditions: in vivo
[15] = system: Mus musculus; experiment: Analgesic activity in Mus musculus Swiss albino (mouse) assessed as increase in reaction time at 10 mg/kg, po after 0.5 hr by tail-flick method relative to control; format: functional
[16] = system: Mus musculus; experiment: Analgesic activity in Mus musculus Swiss albino (mouse) assessed as increase in reaction time at 10 mg/kg, po after 1 hr by tail-flick method relative to control; format: functional
[17] = system: Mus musculus; experiment: Analgesic activity in Mus musculus Swiss albino (mouse) assessed as increase in reaction time at 10 mg/kg, po after 1.5 hr by tail-flick method relative to control; format: functional
[18] = Antioxidant activity assessed as hydroxyl radical scavenging activity at 40 ug/ml after 4 hr; format: functional
[19] = system: Staphylococcus aureus; experiment: Antibacterial activity against Staphylococcus aureus by well diffusion method; format: functional, organism-based
[20] = Antioxidant activity assessed as nitric oxide radical scavenging activity at 40 ug/ml after 150 min by Griess Illosvoy reaction; format: functional
[21] = Antioxidant activity assessed as superoxide radical scavenging activity at 40 ug/ml after 5 min by NBT reduction assay; format: functional
[22] = Antioxidant activity assessed as hydroxyl radical scavenging activity at 60 ug/ml after 4 hr; format: functional
[23] = Antioxidant activity assessed as superoxide radical scavenging activity at 80 ug/ml after 5 min by NBT reduction assay; format: functional
[24] = Antioxidant activity assessed as hydroxyl radical scavenging activity at 80 ug/ml after 4 hr; format: functional
[25] = Antioxidant activity assessed as nitric oxide radical scavenging activity at 20 ug/ml after 150 min by Griess Illosvoy reaction; format: functional
[26] = system: Aspergillus; experiment: Antifungal activity against Aspergillus by well diffusion method; format: functional, organism-based
[27] = Antioxidant activity assessed as superoxide radical scavenging activity at 20 ug/ml after 5 min by NBT reduction assay; format: functional
[28] = Antioxidant activity assessed as nitric oxide radical scavenging activity at 80 ug/ml after 150 min by Griess Illosvoy reaction; format: functional
[29] = Antioxidant activity assessed as nitric oxide radical scavenging activity at 60 ug/ml after 150 min by Griess Illosvoy reaction; format: functional
[30] = system: Rattus norvegicus; experiment: Ulcerogenic activity in Rattus norvegicus Wistar albino (rat) assessed as ulcer index at equimolar dose of relative to 200 mg/kg of ibuprofen, po after 17 hr; format: toxicity, organism-based; set-up: dose 200 mg/kg, route oral; conditions: in vivo
[31] = system: Escherichia coli; experiment: Antibacterial activity against Escherichia coli by well diffusion method; format: functional, organism-based
[32] = Antioxidant activity assessed as hydroxyl radical scavenging activity at 20 ug/ml after 4 hr; format: functional
[33] = Antioxidant activity assessed as superoxide radical scavenging activity at 60 ug/ml after 5 min by NBT reduction assay; format: functional

SMILES	Activity [1] [%]	Activity [2] [%]	inhibition in vivo at 20 mg/kg [3] [%]	Activity [4] [%]	inhibition in vivo at 20 mg/kg [5] [%]	inhibition in vivo at 20 mg/kg [6] [%]	inhibition in vivo at 20 mg/kg [7] [%]	inhibition [8] [%]	inhibition in vivo at 20 mg/kg [9] [%]	inhibition in vivo at 20 mg/kg [10] [%]	other results
Cc1nn2c(C(C)c3ccc(CC(C)C)cc3)nnc2s1 (stereo not drawn)	42.66	26.66	58	32	43	62	56	7.9	64	62	
Cc1cc(C(C)(C)C)c(O)c(C(C)(C)C)c1								84.8			inhibition [11]: 62.2%; inhibition [12]: 68.3%; inhibition [13]: 72.5%
O=C(O)Cc1ccccc1Nc1c(Cl)cccc1Cl [DICLOFENAC]			76		65	75	73		82	80	
CC(C)Cc1ccc(C(C)C(=O)O)cc1 (stereo not drawn) [IBUPROFEN]			36		18	42	39		20	25	UI [14]: 29.37; Activity [15]: 11.73%; Activity [16]: 22.53%; Activity [17]: 30.04%
CC(C)=CCN1CC[C@@]2(C)c3cc(O)ccc3C[C@@H]1[C@@H]2C (racemic)											Activity [15]: 20.44%; Activity [16]: 40.33%; Activity [17]: 77.34%
CC(C)Cc1ccc(C(C)c2nnc3sc(-c4ccc([N+](=O)[O-])cc4Cl)nn23)cc1 (stereo not drawn)	41.61	17.34	67	31.79	4	69	67	1.71		59	
CC(C)Cc1ccc(C(C)c2nnc3sc(-c4ccccc4Cl)nn23)cc1 (stereo not drawn)	78.2	19.23	59	39.74	43	59	58	4.46	64	57	
CCc1nn2c(C(C)c3ccc(CC(C)C)cc3)nnc2s1 (stereo not drawn)	30.06	7.18	45	16.33	22	55	44	5.61	5	49	
CCCc1nn2c(C(C)c3ccc(CC(C)C)cc3)nnc2s1 (stereo not drawn)			28		15	34	31	77.9	10	24	inhibition [18]: 38.7%; Activity [19]: inactive; inhibition [11]: 52.6%; inhibition [20]: 26.7%; inhibition [21]: 36.4%; inhibition [22]: 44.2%; inhibition [23]: 53%; inhibition [24]: 56.4%; inhibition [25]: 14.3%; Activity [26]: inactive; inhibition [12]: 62.4%; inhibition [27]: 24.5%; inhibition [13]: 58.6%; inhibition [28]: 46.7%; inhibition [29]: 38.3%; UI [30]: 8.54; Activity [31]: inactive; inhibition [32]: 26.1%; inhibition [33]: 42.4%
